Data: patent US20030153030A1, “Enzyme-catalyzed modification of substances in biological mixtures” (priority 1999, published 2003)

Experiments:
[1] = Activity of salicin derivative as opposed to salicin; settings: modified versus unmodified salicin
MSCP5 cells = experiment: Prostaglandin synthesis/release in 14C-arachidonic acid-marked skin keratinocytes; type: cell-based, Murine; settings: NS398 10 μM, positive control, 2 hours incubation
Protocol: FIG. 1 is a schematic illustration of the effects of salicin and salicin esters on the release of prostaglandin in keratinocytes. The average value of three measuring points is shown. In FIG. 1, 1=negative control, 2=salicin, 3=phenyl propionyl salicin, 4=p-OH-phenyl acetyl salicin and 5=positive control.
Murine (MSCP5) and human (HPKII) skin keratinocytes were marked for 16 hours with 0.2 μCi ^14C-arachidonic acid/ml medium. Salicin, phenylpropionyl salicin and p-OH-phenylacetyl salicin in fresh medium were added in increasing concentrations as test substances and incubated for 2 hours. In the positive control NS398 (10 μM) for MSCP5 cells, prostaglandin synthesis is reduced by 85%. The prostaglandins were identified by comparison with reference substances and quantified by radiodensitometry. MSCP5: 100%=201 cpm; HPKII: 100%=63 cpm.

Row | SMILES | improvement of activity as opposed to salicin [1] | prostaglandin synthesis is reduced by (MSCP5 cells)
1 | O=C(Cc1ccc(O)cc1)OCC1OC(Oc2ccccc2CO)C(O)C(O)C1O (centres unmarked) [p-OH-phenyl acetoyl salicin, p-OH-phenylacetyl salicin] | improvements are also shown | 
2 | CS(=O)(=O)Nc1ccc([N+](=O)[O-])cc1OC1CCCCC1 [NS398] |  | 85%
